US7705144B2, “Dyes of improved optical brightness and/or fluorescence and compositions containing them” (priority 2007, dated 2010)
“Also recorded” adds a separate entry of the source.

Legend:
[1] = Solubility of the dyes in water, mineral oil and organic solvents; type: physicochemical; conditions: for solubility in organic solvents: which solvents dissolve the dye
[2] = Stability of kaolin pigment powder in oil and in water; type: physicochemical; conditions: product deposited on kaolin; oil / mineral oil and water
Procedure: A small amount of the product was dissolved in acetone (10 mg in 20 mL), which was slowly added to kaolin (10 g). The solution was heated to 30° C. and the solvent allowed to slowly evaporate with mixing.
A small amount of the product was dissolved in methylene chloride (50 mg in 30 mL), which was slowly added to kaolin (5 g). The suspension was heated to 30° C. and the solvent allowed to slowly evaporate with mixing.

[3] = unmodified precursor dye; cited from earlier work

| Structure (SMILES) | solubility in organic solvents [1] | solubility in acetone, alcohol, and chlorinated solvents [1] | solubility in mineral oil [1] | solubility in water [1] | solubility in water of the precursor dye [3] | also measured |
| --- | --- | --- | --- | --- | --- | --- |
| CC1CCC(Oc2nc(Nc3ccc(CO)cc3)nc(OC3CCC(C)CC3C(C)C)n2)C(C(C)C)C1 (stereo not shown) [Compound III] | soluble only in alcohol or acetone |  |  |  |  | stability of the resulting powder in oil and in water [2]: stable in water and in mineral oil |
| C=Cc1ccc(Nc2nc(OCCCCCCCC)nc(Oc3ccc(C(c4ccccc4)(c4ccccc4)c4ccccc4)cc3)n2)cc1 [Compound II] | solubility only to dichloromethane and toluene; also recorded: only soluble in boiling toluene or dichloromethane | show solubility | insoluble | insoluble |  | solubility in organic solvents ([1]; listed as Example 2): insoluble to common organic solvents, except for hot dichloromethane and toluene |
| CC1CCC(Oc2nc(Oc3ccc4c(-c5ccccc5C(=O)O)c5ccc(=O)cc-5oc4c3)nc(OC3CCC(C)CC3C(C)C)n2)C(C(C)C)C1 (stereo not shown) [Compound IV] | soluble only in alcohol or acetone | dissolves | insoluble | not soluble |  |  |
| CCCCCCCCOc1nc(Nc2cc3sc4cc(=[N+](C)C)ccc-4nc3cc2C)nc(N(c2ccccc2)c2ccccc2)n1 [Compound I] |  | show solubility | insoluble | insoluble |  | solubility in methanol ([1]; methanol): soluble; stability of the resulting powder in oil and in water [2]: stable in oil and in water |
| O=C1OC2(c3ccc(O)cc3Oc3cc(O)ccc32)c2ccccc21 [fluorescein] |  |  |  |  | soluble in water |  |
| N=C1C=CC(=C(c2ccc(N)cc2)c2ccc(N)cc2)C=C1 [pararosaniline] |  |  |  |  | water soluble |  |
| Cc1cc2nc3ccc(N(C)C)cc3[s+]c2cc1N.[Cl-] [toluidine blue O] |  |  |  |  | water soluble |  |
